Measurements published in PMC6457333 (Chemical Science, 2019).

Target: N. europaea cyt P460 (Nitrosomonas europaea, UniProt Q50927)
Assay: biochemical

N. europaea cyt P460, sequence (Q50927 27-198): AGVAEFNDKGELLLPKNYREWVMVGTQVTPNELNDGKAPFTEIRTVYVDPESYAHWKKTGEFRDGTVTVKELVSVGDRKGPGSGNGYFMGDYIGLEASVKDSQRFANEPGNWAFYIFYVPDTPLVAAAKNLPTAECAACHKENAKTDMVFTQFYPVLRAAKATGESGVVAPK

**Q.** How did the Kd turn out when NO [hydroxylamine] was run?
**A.** 9 ± 1 mM
